Patent publication US9586959B2, “Substituted tricyclic heterocycles as histamine 4 receptor inhibitors” (C&C RESEARCH LABORATORIES, priority 2011, dated 2017)
≈ marks a conversion by molar mass, not a printed value. Like-named read-outs stand apart in the source and are kept apart here.

What was measured:
[1] = Metabolic stability in human microsome; conditions: human microsome 1 mg/mL, 5 μM compound, 1 mM NADPH
[2] = target: human histamine 4 receptor (hH4R) (Homo sapiens (Human), UniProt Q9H3N8); assay: Binding affinity of human histamine 4 receptor (hH4R), [3H] labeled histamine displacement; conditions: hH4R-overexpressed cell membrane, [3H] histamine
In short: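 Membranes of hH4R-overexpressing cells (25 μg) incubated with compound and [3H]histamine (diluted to 1 μM before addition) for 30 min at 27° C. Non-specific binding defined with histamine (100 μM before addition); bound radioligand collected by filtration on PEI-presoaked glass fibre, washed with 50 mM Tris-HCl pH 7.4, counted by scintillation (CPM).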

[3] = Solubility in artificial gastrointestinal tract solution; format: physicochemical; conditions: for solubility at 1 h / solubility at 2 h: artificial gastrointestinal tract solution, thermodynamic from solid; for solubility at 1 h: fassgf or other biorelevant; for solubility at 2 h: fassif
In short: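 Two media were used: pH 1.2 NaCl/HCl with Triton X-100, and pH 6.5 phosphate buffer with sodium taurocholate and lecithin. Heated sample solutions were filtered to remove undissolved compound, diluted 1:1 with CH3CN, and solubility was measured by liquid chromatography.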

[4] = Mouse pharmacokinetics (oral); format: in vivo; conditions: ICR mouse, 5 mg/mL solution at 10 mL/kg; for Cmax / AUC(0-inf) / half-life: plasma, 50 mg/kg; for AUC(0-inf): read-out: Mouse pharmacokinetics AUCinf; for half-life: read-out: Mouse pharmacokinetics t1/2 (converted)
Description: (§1) The weight of each ICR mouse and SD rat was properly 20˜30 g and 200˜300 g, and dosage of the compound of the present invention was 10 mL/kg for mice and 5 mL/kg for rats, and administered orally using Zonde. Blood collection was performed at 0.25, 0.5, 1, 2, 4, 6, 8 and 24 hours by orbital venous blood collection using a capillary tube coated with an anticoagulant, and then plasma was isolated using a centrifuge and kept in a freezer.
(§2) Plasma collected from animals and standard concentration material were pretreated using solid-phase extraction, and concentration of the compound of the invention was determined using a liquid chromatography mass spectrometer (Agilent HPLC, API-3000).
(§3) According to the resulting concentration value, the pharmacokinetics parameter was found using WinNonlin (Version 6.2) and half-life (t1/2), maximum blood concentration (Cmax) and infinite area under the curve (AUCinf) are shown in Tables 6 and 7 below.

[5] = Rat pharmacokinetics (oral); format: in vivo; conditions: SD rat, 2 mg/mL solution at 5 mL/kg
Description: as §1, §2, §3

[6] = Metabolic stability in mouse microsome; conditions: mouse microsome 1 mg/mL, 5 μM compound, 1 mM NADPH
[7] = test system: histamine-induced mast cell migration (trachea); assay: Histamine-induced mast cell migration; format: in vivo, Balb/c mice; conditions: 20 mg/kg oral, 0.1 M histamine aerosol, 2 days
Description: Female, Balb/c mice (7 weeks old, 20±3 g) were purchased from OrientBio Co., Ltd.
The animals were housed under conditions of controlled temperature (23±3° C.), humidity (50±5%) and lighting with food and water available ad libitum.
Mice were dosed with either vehicle (20% cyclodextrin in second distilled water) or the compound by orally administration. The Compound (20 mg/kg) dissolved in a vehicle and administered orally at a volume of 10 mL/kg. After 15 minutes, mice were challenged by a 20 min aerosol inhalation of PBS (phosphate buffered saline) or 0.1 M histamine (dissolving in PBS). This process was repeated for 2 days. After a final challenge, the tracheae were cleared of blood via perfusion of PBS and tracheae were extracted, the tracheae were fixed in 10% (w/v) formaldehyde for subsequent paraffin cross-sectioning and toluidine blue staining. Total mast cells were calculated, and a mean was reported. (The Journal of Pharmacology and Experimental Therapeutics, 2004, 309, 404-413). Statistical analysis was analyzed using one-way ANOVA with Dunnett test. Values of p<0.05 were considered statistically significant.

[8] = target: human serotonin 3 receptor (human 5-HT3 receptor) (Homo sapiens (Human), UniProt P46098); assay: Binding affinity of human serotonin 3 receptor (performed at Cerep)
human serotonin 3 receptor (human 5-HT3 receptor), sequence (P46098 24-478): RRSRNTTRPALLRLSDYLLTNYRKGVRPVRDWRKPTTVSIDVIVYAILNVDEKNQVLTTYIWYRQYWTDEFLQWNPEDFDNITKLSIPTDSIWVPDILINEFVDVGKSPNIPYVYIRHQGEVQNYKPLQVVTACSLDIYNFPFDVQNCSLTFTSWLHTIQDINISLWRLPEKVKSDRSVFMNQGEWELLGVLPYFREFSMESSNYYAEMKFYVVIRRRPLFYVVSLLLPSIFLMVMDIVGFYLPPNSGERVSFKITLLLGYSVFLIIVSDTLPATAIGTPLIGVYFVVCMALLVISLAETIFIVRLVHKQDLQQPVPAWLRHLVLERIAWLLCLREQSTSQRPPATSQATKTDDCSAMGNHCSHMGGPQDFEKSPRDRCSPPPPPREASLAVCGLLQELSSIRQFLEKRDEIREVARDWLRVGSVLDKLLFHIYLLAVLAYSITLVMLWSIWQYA
Description: The binding assays of the human serotonin 3 receptor for present invention were performed at Cerep (Poitiers, France), and the results of analysis are shown in Table 3.

[9] = target: human histamine 3 receptor (hH3R) (Homo sapiens (Human), UniProt Q9Y5N1); assay: Binding affinity of human histamine 3 receptor (hH3R), [3H] labeled N-α-methylhistamine displacement; conditions: hH3R-overexpressed cell membrane, [3H] N-α-methylhistamine
human histamine 3 receptor (hH3R), sequence (Q9Y5N1 whole entry): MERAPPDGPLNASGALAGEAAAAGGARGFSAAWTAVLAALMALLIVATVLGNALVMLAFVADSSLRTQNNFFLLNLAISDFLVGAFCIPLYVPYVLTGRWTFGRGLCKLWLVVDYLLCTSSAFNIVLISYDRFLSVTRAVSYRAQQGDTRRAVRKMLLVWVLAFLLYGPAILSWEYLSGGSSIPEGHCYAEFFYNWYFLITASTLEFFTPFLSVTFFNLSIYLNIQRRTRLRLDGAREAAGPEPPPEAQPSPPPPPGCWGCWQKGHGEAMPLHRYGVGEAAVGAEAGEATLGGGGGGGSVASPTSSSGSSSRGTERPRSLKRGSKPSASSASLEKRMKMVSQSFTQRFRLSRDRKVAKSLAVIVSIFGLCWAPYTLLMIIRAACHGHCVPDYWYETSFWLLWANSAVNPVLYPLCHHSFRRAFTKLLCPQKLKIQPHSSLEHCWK
In short: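 Membranes from cells overexpressing hH3R (15 μg) were incubated with compound and [3H]N-α-methylhistamine (20 μM stock) in 50 mM Tris-HCl pH 7.4, 5 mM MgCl2 for 30 min at 27 °C. Bound radioligand was counted by scintillation after filtration; 200 μM (R)(−)-α-methylhistamine stock defined non-specific binding; IC50 derived.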

[10] = microsomes, 5 μM, pH 7.4
[11] = microsomes, 5 μM, pH 7.4; remark: listed apart in the source
[12] = test system: histamine-induced itching, ICR mice; assay: Histamine-induced itching model in ICR mice; format: in vivo; conditions: 50 mg/kg oral, histamine 300 nmol intradermal, 20 min count
Description: Female, ICR mice (8 weeks old) were purchased from OrientBio Co., Ltd. The animals were housed under conditions of controlled temperature (23±3° C.), humidity (50±5%) and lighting with food and water available ad libitum.
The hair was clipped using clippers (8000AD, THRIVE) over the rostral part of the back 24 hours before the experiment under anesthesia with isoflurane. Histamine (300 nmol) was dissolved in saline and a volume of 40 μL injected intradermally into the rostral part of the back. Mice were dosed with either vehicle (20% cyclodextrin in second distilled water) or the compound by orally administration. The Compound (50 mg/kg) dissolved in a vehicle (20% cyclodextrin in second distilled water) and administered orally at a volume of 10 mL/kg.
Mice (n=10 per group) were divided into 3 groups (normal group, control group and experimental group). The animals were randomized for similar body weight distribution. A vehicle or the compound was administered 20 minutes before injection of histamine or saline. Immediately after intradermal injection, the animals were returned to an acrylic cage (approximately 30×30×30 cm, access production) composed of four cells, to which they had been acclimated for at least 1 hour before the experiment, for observation of itch responses. A camera (Samsung, VLUUNV30) was positioned above the mice to record their response. Itch was measured by blinded counting of the number of scratching in the 20 min period immediately after the intradermal injection. A number of scratching was defined as 3 or more individual rapid scratch movements with the hind paws around the injection site (J. Allergy Clin. Immunol. 2007, 19(1), 176-183). All data were analyzed by using Excel and Prism, and all values are expressed as the mean±S.E.M. The inhibitory effect of compounds is shown as a percentage of the maximal response to histamine (100% control group).
Statistical analysis was analyzed using one-way ANOVA with Dunnett test. Values of p<0.05 were considered statistically significant.

[13] = test system: oxazolone-induced atopic dermatitis, Balb/c mice; assay: Oxazolone-induced atopic dermatitis model in Balb/c mice; format: in vivo; conditions: 100 mg/kg, BID, oral, days 8-28
Description: Female, Balb/c mice (6 weeks old, 20±3 g) were purchased from OrientBio Co., Ltd. The animals were housed under conditions of controlled temperature (23±3° C.), humidity (50±5%) and lighting with food and water available ad libitum.
On the beginning day (day 1), mice were sensitized by the topical application of 50 μL of 1% oxazolone in acetone and olive oil (4:1 ratio) on the abdominal skin. On day 8, 10, 12, 15, 17, 19, 22, 24 and 26, 25 μL of 0.2% oxazolone was applied topically on the inner side of right ear of each mouse. Between days 8 and 28, the compound of the invention was administered orally (10 mL/kg) twice a day in the morning and afternoon, and on days 12, 19 and 27, the thickness of the right ear of the mouse was measured. On day 28, the ear tissue of the mouse was extracted, fixed in 10% formalin solution, and then a tissue slide was prepared, stained with H&E (hematoxylin & eosin), and then the thickness of the ear was observed (Journal of Investigative Dermatology, 2008, 128, 79-86). Statistical analysis was analyzed using one-way ANOVA with Dunnett test. Values of p<0.05 were considered statistically significant.

[14] = first solution pH 1.2, 2 mg/mL sample, 37° C. 1 hour
[15] = second solution pH 6.5, 2 mg/mL sample, 37° C. 2 hours

Metabolic stability (CLh. int), Human [1] [µL/min/mg]	solubility at 1 h [3, 14] [µg/mL]	solubility at 2 h [3, 15] [µg/mL]	Cmax [4] [ng/mL]	AUC(0-inf) [4] [ng·h/mL]	half-life [4] [h]	Metabolic stability (CLh. int), Mouse [6] [µL/min/mg]	IC50 [9] [nM]	SMILES	IC50 [2] [nM]	Mast cell migration (% change from control group) [7]	other results
4160	1930 (≈ 6.87 mM)	1380 (≈ 4.94 mM)	9760	14000	1.17	4590	> 100000	CNC1CN(c2nc3ncc(C#N)cc3n3cnnc23)C1 [Compound 25, 4-(3-(Methylamino)azetidin-1-yl)pyrido[2,3-e][1,2,4]triazolo[4,3-a]pyrazin-8-carbonitrile]	100	48.4^1%	Cmax ([5]; plasma, 10 mg/kg): 970 ng/mL; AUC(0-inf) ([5]; plasma, 10 mg/kg, read-out: Rat pharmacokinetics AUCinf): 2920 ng·h/mL; half-life ([5]; plasma, 10 mg/kg, read-out: Rat pharmacokinetics t1/2 (converted)): 2.21 h; inhibition at 10 µM ([8]; read-out: % inhibition degree at 10 μM, human serotonin 3 receptor (h5-HT3R)): 0%; IC50 ([8]; read-out: Binding affinity (IC50) of human serotonin 3 receptor (h5-HT3R)): > 10000 nM
5190	2010 (≈ 6.33 mM)	1980 (≈ 6.23 mM)	11700	22400	1.79	28630	> 100000	Cc1nc2c3cc(Cl)cnc3nc(N3CCN(C)CC3)n2n1 [Compound 31, 9-Chloro-2-methyl-5-(4-methylpiperazin-1-yl)pyrido[3,2-e][1,2,4]triazolo[1,5-c]pyrimidine]	16		Number of scratching (% changes from control group) [12]: 89.3^1%

SMILES	Metabolic stability (CLh. int), Human [1] [µL/min/mg]	solubility at 1 h [3, 14] [µg/mL]	solubility at 2 h [3, 15] [µg/mL]	Cmax [4] [ng/mL]	AUC(0-inf) [4] [ng·h/mL]	half-life [4] [h]	Metabolic stability (CLh. int), Mouse [6] [µL/min/mg]	IC50 [9] [nM]	IC50 [2] [nM]	Mast cell migration (% change from control group) [7]	other results
Clc1cnc2nc(N3CCN4CCCC4C3)c3nncn3c2c1 (centres unmarked) [Compound 29, 8-Chloro-4-(hexahydropyrrolo[1,2-a]pyrazin-2(1H)-yl)pyrido[2,3-e][1,2,4]triazolo[4,3-a]pyrazine]		1560 (≈ 4.73 mM)	1990 (≈ 6.04 mM)						49		Metabolic stability (CLh. int), Human [10]: 3950 µL/min/mg; Metabolic stability (CLh. int), Mouse [11]: 12070 µL/min/mg
CN1CCN(c2nc3ccc(Cl)cc3n3cnnc23)CC1 [reference compound]	10990						111630	9000	22	23.1^1%	Solubility, First solution (pH = 1.2) [3, 14]: 1708.3 μg/mL; Solubility, Second solution (pH = 6.5) [3, 15]: 320.1 μg/mL; Mouse pharmacokinetics AUCinf [4]: 6650 ng·h/mL; Mouse pharmacokinetics Cmax [4]: 3840 ng/mL; Mouse pharmacokinetics t1/2 [4]: 3.49 h; Rat pharmacokinetics AUCinf [5]: 1060 ng·h/mL; Rat pharmacokinetics Cmax [5]: 490 ng/mL; Rat pharmacokinetics t1/2 [5]: 1.09 h; Ear epidermis thickness (% change from control group) [13]: 8.0%
